Results from ChEMBL document CHEMBL1817568, “Novel hybrids of fluconazole and furanones: design, synthesis and antifungal activity” (2011).
≈ marks a conversion by molar mass, not a printed value. Calls of active or inactive are those of the source. No cut-off for these calls is given here.

Legend:
Candida albicans [1] = assay: Antifungal activity against Candida albicans ATCC 24433 by broth dilution method; format: functional
Nakaseomyces glabratus [2] = assay: Antifungal activity against Candida glabrata ATCC 90030 by broth dilution method; format: functional
Pichia kudriavzevii [3] = assay: Antifungal activity against Candida krusei ATCC 6258 by broth dilution method; format: functional
Candida tropicalis [4] = assay: Antifungal activity against Candida tropicalis ATCC 750 by broth dilution method; format: functional
Cryptococcus neoformans [5] = assay: Antifungal activity against Cryptococcus neoformans ATCC 34664 by broth dilution method; format: functional
Aspergillus niger [6] = assay: Antifungal activity against Aspergillus niger ATCC 16404 at 128 ug/ml by broth dilution method; format: functional, organism-based
Aspergillus fumigatus [7] = assay: Antifungal activity against Aspergillus fumigatus ATCC 46645 at 128 ug/ml by broth dilution method; format: functional, organism-based
Fusarium proliferatum [8] = assay: Antifungal activity against Fusarium proliferatum ATCC 10052 at 128 ug/ml by broth dilution method; format: functional, organism-based
Pichia kudriavzevii [9] = assay: Antifungal activity against Candida krusei ATCC 6258 at 128 ug/ml by broth dilution method; format: functional, organism-based
Candida tropicalis [10] = assay: Antifungal activity against Candida tropicalis ATCC 750 at 128 ug/ml by broth dilution method; format: functional, organism-based
Pichia kudriavzevii [11] = assay: Antifungal activity against Candida krusei ATCC 6258 at 4 ug/ml by broth dilution method; format: functional, organism-based
Candida tropicalis [12] = assay: Antifungal activity against Candida tropicalis ATCC 750 at 4 ug/ml by broth dilution method; format: functional, organism-based
Cryptococcus neoformans [13] = assay: Antifungal activity against Cryptococcus neoformans ATCC 34664 at 4 ug/ml by broth dilution method; format: functional, organism-based
Aspergillus niger [14] = assay: Antifungal activity against Aspergillus niger ATCC 16404 at 4 ug/ml by broth dilution method; format: functional, organism-based
Aspergillus fumigatus [15] = assay: Antifungal activity against Aspergillus fumigatus ATCC 46645 at 4 ug/ml by broth dilution method; format: functional, organism-based
Fusarium proliferatum [16] = assay: Antifungal activity against Fusarium proliferatum ATCC 10052 at 4 ug/ml by broth dilution method; format: functional, organism-based
Pichia kudriavzevii [17] = assay: Antifungal activity against Candida krusei ATCC 6258 at 8 ug/ml by broth dilution method; format: functional, organism-based
Aspergillus niger [18] = assay: Antifungal activity against Aspergillus niger ATCC 16404 at 8 ug/ml by broth dilution method; format: functional, organism-based
Aspergillus fumigatus [19] = assay: Antifungal activity against Aspergillus fumigatus ATCC 46645 at 8 ug/ml by broth dilution method; format: functional, organism-based
Pichia kudriavzevii [20] = assay: Antifungal activity against Candida krusei ATCC 6258 at 16 ug/ml by broth dilution method; format: functional, organism-based
Cryptococcus neoformans [21] = assay: Antifungal activity against Cryptococcus neoformans ATCC 34664 at 16 ug/ml by broth dilution method; format: functional, organism-based
Aspergillus niger [22] = assay: Antifungal activity against Aspergillus niger ATCC 16404 at 16 ug/ml by broth dilution method; format: functional, organism-based
Aspergillus fumigatus [23] = assay: Antifungal activity against Aspergillus fumigatus ATCC 46645 at 16 ug/ml by broth dilution method; format: functional, organism-based
Fusarium proliferatum [24] = assay: Antifungal activity against Fusarium proliferatum ATCC 10052 at 16 ug/ml by broth dilution method; format: functional, organism-based
Candida albicans [25] = assay: Antifungal activity against Candida albicans ATCC 24433 at 4 ug/ml by broth dilution method; format: functional, organism-based
Nakaseomyces glabratus [26] = assay: Antifungal activity against Candida glabrata ATCC 90030 at 4 ug/ml by broth dilution method; format: functional, organism-based
Candida albicans [27] = assay: Antifungal activity against Candida albicans ATCC 24433 at 8 ug/ml by broth dilution method; format: functional, organism-based
Nakaseomyces glabratus [28] = assay: Antifungal activity against Candida glabrata ATCC 90030 at 8 ug/ml by broth dilution method; format: functional, organism-based
Cryptococcus neoformans [29] = assay: Antifungal activity against Cryptococcus neoformans ATCC 34664 at 8 ug/ml by broth dilution method; format: functional, organism-based
Fusarium proliferatum [30] = assay: Antifungal activity against Fusarium proliferatum ATCC 10052 at 8 ug/ml by broth dilution method; format: functional, organism-based

COc1cc(C=O)ccc1OCC(O)(Cn1cncn1)c1ccc(F)cc1F (racemic)
MIC50 (Candida albicans [1]): 0.5 µg/mL (≈ 1.28 µM) | MIC50 (Nakaseomyces glabratus [2]): 1 µg/mL (≈ 2.57 µM) | MIC50 (Pichia kudriavzevii [3]): 128 µg/mL (≈ 329 µM) | MIC50 (Candida tropicalis [4]): 8 µg/mL (≈ 20.5 µM) | MIC50 (Cryptococcus neoformans [5]): 16 µg/mL (≈ 41.1 µM) | Activity (Aspergillus niger [6]): inactive | Activity (Aspergillus fumigatus [7]): inactive | Activity (Fusarium proliferatum [8]): inactive

COc1cc(C=O)cc(OC)c1OCC(O)(Cn1cncn1)c1ccc(F)cc1F (racemic)
MIC50 (Candida albicans [1]): 1 µg/mL (≈ 2.38 µM) | MIC50 (Nakaseomyces glabratus [2]): 1 µg/mL (≈ 2.38 µM) | MIC50 (Candida tropicalis [4]): 64 µg/mL (≈ 153 µM) | Activity (Pichia kudriavzevii [9]): inactive | MIC50 (Cryptococcus neoformans [5]): 8 µg/mL (≈ 19.1 µM) | Activity (Aspergillus niger [6]): inactive | Activity (Aspergillus fumigatus [7]): inactive | Activity (Fusarium proliferatum [8]): inactive

COc1ccc(C=O)cc1OCC(O)(Cn1cncn1)c1ccc(F)cc1F (racemic)
MIC50 (Candida albicans [1]): 2 µg/mL (≈ 5.14 µM) | MIC50 (Nakaseomyces glabratus [2]): 2 µg/mL (≈ 5.14 µM) | Activity (Pichia kudriavzevii [9]): inactive | Activity (Candida tropicalis [10]): inactive | MIC50 (Cryptococcus neoformans [5]): 16 µg/mL (≈ 41.1 µM) | Activity (Aspergillus niger [6]): inactive | Activity (Aspergillus fumigatus [7]): inactive | Activity (Fusarium proliferatum [8]): inactive

O=C1OC(c2ccccc2)=N/C1=C\c1ccc(OCC(O)(Cn2cncn2)c2ccc(F)cc2F)cc1 (racemic)
MIC50 (Candida albicans [1]): 4 µg/mL (≈ 7.96 µM) | MIC50 (Nakaseomyces glabratus [2]): 4 µg/mL (≈ 7.96 µM) | Activity (Pichia kudriavzevii [11]): inactive | Activity (Candida tropicalis [12]): inactive | Activity (Cryptococcus neoformans [13]): inactive | Activity (Aspergillus niger [14]): inactive | Activity (Aspergillus fumigatus [15]): inactive | Activity (Fusarium proliferatum [16]): inactive

O=C(O)Cc1ccc(OCC(O)(Cn2cncn2)c2ccc(F)cc2F)cc1 (racemic)
MIC50 (Candida albicans [1]): 8 µg/mL (≈ 20.5 µM) | MIC50 (Nakaseomyces glabratus [2]): 8 µg/mL (≈ 20.5 µM) | MIC50 (Candida tropicalis [4]): 64 µg/mL (≈ 164 µM) | Activity (Pichia kudriavzevii [9]): inactive | MIC50 (Cryptococcus neoformans [5]): 64 µg/mL (≈ 164 µM) | Activity (Aspergillus niger [6]): inactive | Activity (Aspergillus fumigatus [7]): inactive | Activity (Fusarium proliferatum [8]): inactive

CC1OC(=O)C(c2ccc(OCC(O)(Cn3cncn3)c3ccc(F)cc3F)cc2)=C1c1ccc(F)cc1F (racemic)
MIC50 (Candida albicans [1]): 1 µg/mL (≈ 1.85 µM) | MIC50 (Nakaseomyces glabratus [2]): 1 µg/mL (≈ 1.85 µM) | MIC50 (Candida tropicalis [4]): 8 µg/mL (≈ 14.8 µM) | Activity (Pichia kudriavzevii [17]): inactive | MIC50 (Cryptococcus neoformans [5]): 4 µg/mL (≈ 7.41 µM) | Activity (Aspergillus niger [18]): inactive | Activity (Aspergillus fumigatus [19]): inactive

CC1(O)OC(=O)C(c2ccc(OCC(O)(Cn3cncn3)c3ccc(F)cc3F)cc2)=C1c1ccc(F)cc1F (racemic)
MIC50 (Candida albicans [1]): 2 µg/mL (≈ 3.6 µM) | MIC50 (Nakaseomyces glabratus [2]): 2 µg/mL (≈ 3.6 µM) | MIC50 (Candida tropicalis [4]): 8 µg/mL (≈ 14.4 µM) | Activity (Pichia kudriavzevii [20]): inactive | Activity (Cryptococcus neoformans [21]): inactive | Activity (Aspergillus niger [22]): inactive | Activity (Aspergillus fumigatus [23]): inactive | Activity (Fusarium proliferatum [24]): inactive

COc1cc(/C=C2\N=C(c3ccccc3)OC2=O)ccc1OCC(O)(Cn1cncn1)c1ccc(F)cc1F (racemic)
Activity (Candida albicans [25]): inactive | Activity (Nakaseomyces glabratus [26]): inactive | Activity (Pichia kudriavzevii [11]): inactive | Activity (Candida tropicalis [12]): inactive | Activity (Cryptococcus neoformans [13]): inactive | Activity (Aspergillus niger [14]): inactive | Activity (Aspergillus fumigatus [15]): inactive | Activity (Fusarium proliferatum [16]): inactive

COc1ccc(/C=C2\N=C(c3ccccc3)OC2=O)cc1OCC(O)(Cn1cncn1)c1ccc(F)cc1F (racemic)
Activity (Candida albicans [25]): inactive | Activity (Nakaseomyces glabratus [26]): inactive | Activity (Pichia kudriavzevii [11]): inactive | Activity (Candida tropicalis [12]): inactive | Activity (Cryptococcus neoformans [13]): inactive | Activity (Aspergillus niger [14]): inactive | Activity (Aspergillus fumigatus [15]): inactive | Activity (Fusarium proliferatum [16]): inactive

COc1ccc(/C=C2\SC(=S)NC2=O)cc1OCC(O)(Cn1cncn1)c1ccc(F)cc1F (racemic)
Activity (Candida albicans [27]): inactive | Activity (Nakaseomyces glabratus [28]): inactive | Activity (Pichia kudriavzevii [17]): inactive | Activity (Cryptococcus neoformans [29]): inactive | Activity (Aspergillus niger [18]): inactive | Activity (Aspergillus fumigatus [19]): inactive | Activity (Fusarium proliferatum [30]): inactive

O=C1O/C(=C\c2ccc(OCC(O)(Cn3cncn3)c3ccc(F)cc3F)cc2)C(c2ccc(F)cc2F)=C1c1ccc(Cl)c(Cl)c1 (racemic)
Activity (Candida albicans [25]): inactive | Activity (Nakaseomyces glabratus [26]): inactive | Activity (Pichia kudriavzevii [11]): inactive | Activity (Candida tropicalis [12]): inactive | Activity (Cryptococcus neoformans [13]): inactive | Activity (Aspergillus niger [14]): inactive | Activity (Aspergillus fumigatus [15]): inactive | Activity (Fusarium proliferatum [16]): inactive

O=C1O/C(=C\c2ccc(OCC(O)(Cn3cncn3)c3ccc(F)cc3F)cc2)C(c2ccc(F)cc2F)=C1c1ccc(Cl)cc1 (racemic)
Activity (Candida albicans [25]): inactive | Activity (Nakaseomyces glabratus [26]): inactive | Activity (Pichia kudriavzevii [11]): inactive | Activity (Candida tropicalis [12]): inactive | Activity (Cryptococcus neoformans [13]): inactive | Activity (Aspergillus niger [14]): inactive | Activity (Aspergillus fumigatus [15]): inactive | Activity (Fusarium proliferatum [16]): inactive

OC(Cn1cncn1)(Cn1cncn1)c1ccc(F)cc1F [FLUCONAZOLE]
MIC50 (Candida albicans [1]): 0.25 µg/mL (≈ 0.816 µM) | MIC50 (Nakaseomyces glabratus [2]): 1 µg/mL (≈ 3.27 µM) | MIC50 (Pichia kudriavzevii [3]): 32 µg/mL (≈ 104 µM) | MIC50 (Candida tropicalis [4]): 1 µg/mL (≈ 3.27 µM) | MIC50 (Cryptococcus neoformans [5]): 2 µg/mL (≈ 6.53 µM) | Activity (Aspergillus niger [6]): inactive | Activity (Aspergillus fumigatus [7]): inactive | Activity (Fusarium proliferatum [8]): inactive
